From US7879914B2, “Methods for treating viral infections using polyamine analogs” (Pathlogica LLC, priority 2005, dated 2011)
“Also recorded” adds a separate entry of the source. Read-outs that look alike come from different tables or passages of the source.

Tests used:
[1] = system: CD14/CD16+ blood macrophages from HIV positive patients; experiment: Susceptibility assay: killing of CD14/CD16+ blood macrophages from HIV patients; assay type: cell-based; details: for EC50: Homo sapiens, Macrophage, advanced HIV disease, read-out: Mean ED50
Protocol: The following procedures/protocols were used in some of the examples that follow. All steps were performed in a biological safety cabinet using Universal Precautions for handling human blood samples and standard aseptic techniques.
Blood was drawn in heparinized tubes (green top Vacutainer tubes from Becton-Dickson) and Percol gradient separated into peripheral blood mononuclear cells (PBMCs), according to the following procedure. Aliquots of no more than 25 mL whole blood were transferred into clean, sterile, prelabeled 50 mL conical tubes. Using a sterile 25 mL pipet, equal volume of PBS (Mg^+2/Ca^+2 free) was added to the whole blood and the tubes were inverted 2 or 3 times. […] (For example: 10 mL whole blood +10 mL PBS.)
The diluted blood was slowly and carefully layered over the sterile Percol in amounts of 15-20 mL by holding the pipet at a 45 degree angle, relative to the Percol tube, and slowly dripping the diluted blood down the side of the tube. The resulting mixture was centrifuged at 2100 RPM for 30 minutes at 25° C. The buffy coat (i.e., the white layer between the yellow plasma on top and clear Percol solution below) so obtained was then slowly aspirated, taking care not to aspirate the Percol. The buffy coat was resuspended in sterile PBS (Mg^+2/Ca^+2 free) and the volume was brought up to 50 mL. The mixture was gently mixed by slowly pipetting up and down 3 times and the cell suspension was centrifuged at 1500 RPM for 10 minutes at 25° C. The supernatant was discarded and the bottom of the tube gently tapped to dislodge the cell pellet.
The PBMC for the susceptibility assays was prepared in accordance with the following procedures. A cell culture medium was prepared by mixing RPMI+10% FBS+1% sodium pyruvate and filter sterilized using a filter unit with 0.22 micron pore size. The cell pellet was then resuspended in 3 ml of the cell culture medium. The suspension was gently mixed by slowly pipetting up and down 3 times. The cells were counted using a hemacytometer and the cell density was adjusted to 1×10^6 cells/mL in the cell culture medium, followed by mixing by slowly pipetting up and down 3 times. The cells were incubated in a 50 mL sterile polypropylene tube, at 37° C. and 5% CO2 for 1-2 days. The cap was loosened and the tubes were tipped to 30-45 degrees relative to the tray surface. A styrofoam tube rack was used to hold the tubes.
The MGBG drug was prepared in accordance with the following procedures. A primary stock of MGBG was prepared by weighing out enough MGBG to make a 1 molar (M) solution and dissolved in sterile PBS (Mg^+2/Ca^+2 free). The solution was vortexed until all of the MGBG had dissolved. A secondary stock (0.01 M) was prepared from a 1/100 dilution of the primary stock and filter sterilized by passing the solution through a 0.22 micron filter. A working stock (0.001 M or 1,000 microMolar) was prepared from a 1/10 dilution of the secondary stock. The CG47 drug was prepared by an identical procedure.
Drug doses for the susceptibility assays were prepared in accordance with the following procedures. Drug dilutions were prepared at 10-fold higher concentrations than the final desired concentrations. For example a 100 microMolar drug solution was made for a desired final concentration of 10 microMolar. The drugs were diluted an additional 1/10 upon addition to the cell suspension (e.g., 0.1 mL drug +0.9 mL cell suspension). The drug doses for the susceptibility assays were prepared right before use in cell culture media.
Susceptibility assays were conducted in accordance with the following procedures. The MGBG drug as added 1-2 days after PBMC was separated from whole blood. […]

[2] = system: CD16+ monocytes; experiment: Killing of CD16+ monocytes by polyamine biosynthesis inhibitors (Example 6); assay type: cell-based, human; details: for comparison of effectiveness of both PBIs: FIG. 6, 10 μM, five days
Protocol: Mononuclear cells were isolated from individuals with HIV infection, uninfected individuals or a patient with ALS and incubated in the absence or presence of increasing concentrations of the PBIs, MGBG (PA-001) and CG47. After five days in culture under non-adherent conditions cells were isolated stained with antibodies to CD14+ and CD16+ and counted by flow cytometry using a FACSCAN (BD-biosciences). The fraction of CD14+ monocytes that expressed CD16 was determined and compared to levels seen in the absence of drug.
Those samples that were relatively resistant to PBIs required 100 μM or more of drug to achieve similar levels of killing. […] Overall 65% to 80% of samples from individuals with HAND were sensitive (>70% killing with 10 μM PBI or less) to PBIs.
The overall results with mononuclear cells from HIV infected individuals, ALS patients, and healthy controls are shown in FIG. 6. […] The number of mononuclear cell samples evaluated in each category were as follows: ALS with PA-001 (MGBG)=6, and with CG47=28. Drug resistant HIV with PA-001=22, and with CG47=48. HAD with PA-001=9, and with CG47=5. Healthy with PA-001=24, and with CG47=15.

[3] = system: HIV DNA associated with CD14 cells; experiment: HIV DNA in isolated CD14 cells after ex vivo drug exposure, quantitative DNA PCR; assay type: cell-based
Protocol: Blood from patients with advanced HIV disease was Percol gradient separated into peripheral blood mononuclear cells (PBMCs) and 5 million cells from each specimen were exposed to a 1 μM concentration of MGBG or control saline for five days. […] After the five day incubation, CD14 immunomagnetic separation with a Miltenyi separation system was performed. Separated CD14 cells from treated and untreated control specimens were evaluated for the level of HIV DNA in each specimen. C-jun, single copy DNA controls were utilized in each specimen to provide the HIV DNA/genomic equivalent values as determined by quantitative DNA PCR analysis as described in Mack, K. D., et al. JAIDS (2003) 33: 308-20. […]
Blood from three patients with advanced HIV disease was Percol gradient separated into peripheral blood mononuclear cells (PBMC's) and 5 million cells from each specimen were exposed to a 10 micromolar concentration of the polyamine analog CG47 or control saline for 5 days. […] Separated CD14 cells from treated and untreated control specimens were evaluated for the level of HIV DNA in each specimen. C-jun, single copy DNA controls were utilized in each specimen to provide the HIV DNA/genomic equivalent values as determined by quantitative DNA PCR analysis as described in Mack et al. (JAIDS). […]

Row | SMILES | killing of the CD14/CD16 blood macrophage population ([1]; 10 micromolar, 5 days, PBMCs of three patients with advanced HIV disease) | sensitivity of CD14/CD16+ macrophages from the HIV patient ([1]; FIG. 4, ex vivo) | EC50 ([1]; CG47, mean of 13 patients) | changes in lymphocyte levels ([2]; 10 μM or less) | comparison of effectiveness of both PBIs [2] | reduction in HIV DNA associated with CD14 cells (average) ([3]; 10 micromolar, 5 days, three blood specimens) | killing of CD14/16+ cells that contain HIV DNA ([1]; 1 μM) | killing of the CD14/CD16 blood macrophage population ([1]; 1 μM, five days, PBMCs of patients with advanced HIV disease) | killing of HIV infected macrophages, dose dependence ([1]; HIV positive patients, FIG. 1) | killing of HIV-infected macrophages from HAD patients ([1]; HIV-associated dementia (HAD) patients, compared with HIV positive) | EC50 ([1]; MGBG, mean of 10 patients) | reduction in HIV DNA associated with CD14 cells (average) ([3]; 1 μM, five days)
1 | CCNCCCNC/C=C\CNCCCNCC.Cl.Cl.Cl.Cl [CG47, N,N′-bis(3-ethylaminopropyl)-cis-but-2-ene-1,4-diamine tetrahydrochloride] | > 80% | extremely sensitive | 3500 nM | little or no changes | approximately equivalently effective | > 90% |  |  |  |  |  | 
2 | CC(/C=N/NC(=N)N)=N\NC(=N)N [MGBG] |  |  |  |  | approximately equivalently effective |  | Complete killing; also recorded: near quantitative | > 80% | dose-dependent | nearly as effective | 465 nM | > 99%
